By IC50 is commonly meant the point on the concentration scale where inhibition reaches its midpoint. Lower therefore signals greater potency. One may read the ED50 as the midpoint of the dose-response relation.

Experiment [1] deals with T1, 5-LO (Homo sapiens, UniProt P09917).
T1 construct: incubating a test compound with heparinised human blood, prior to challenge with the calcium ionphore A23187; endogenous in cells; host or cells: blood cells in heparinised human blood
T1 sequence (P09917 1-674): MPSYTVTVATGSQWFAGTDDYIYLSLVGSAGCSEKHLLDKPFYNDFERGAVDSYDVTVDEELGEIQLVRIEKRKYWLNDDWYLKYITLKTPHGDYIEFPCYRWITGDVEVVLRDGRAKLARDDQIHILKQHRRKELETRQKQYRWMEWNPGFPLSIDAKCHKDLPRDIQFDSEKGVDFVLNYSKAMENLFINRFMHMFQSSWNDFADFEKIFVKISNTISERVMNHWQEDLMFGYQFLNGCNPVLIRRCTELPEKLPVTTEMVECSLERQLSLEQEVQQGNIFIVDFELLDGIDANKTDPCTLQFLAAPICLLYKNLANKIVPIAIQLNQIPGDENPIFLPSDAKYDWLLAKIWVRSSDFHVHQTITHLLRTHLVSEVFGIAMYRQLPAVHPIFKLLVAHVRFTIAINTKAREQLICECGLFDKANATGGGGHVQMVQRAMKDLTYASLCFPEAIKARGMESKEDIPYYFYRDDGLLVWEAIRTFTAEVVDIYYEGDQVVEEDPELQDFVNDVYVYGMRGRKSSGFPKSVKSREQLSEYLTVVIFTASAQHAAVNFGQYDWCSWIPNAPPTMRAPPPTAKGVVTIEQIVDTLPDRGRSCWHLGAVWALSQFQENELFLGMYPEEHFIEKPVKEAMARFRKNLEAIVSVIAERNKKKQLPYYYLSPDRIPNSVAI
Kind of experiment: Test a) in vitro human blood assay, A23187 challenge, LTB4 radioimmunoassay. Type of experiment: cell-based. The following applies: heparinised human blood. How it is done: (§1) As stated previously, the novel compounds of the formula I are inhibitors of the enzyme 5-LO.
a) An in vitro assay system involving incubating a test compound with heparinised human blood, prior to challenge with the calcium ionphore A23187 and then indirectly measuring the inhibitory effects on 5-LO by assaying the amount of LTB4 using specific radioimmunoassays described by Carey and Forder (Prostaglandins, Leukotrienes Med., 1986, 22, 57; Prostaglandins, 1984, 28, 666; Brit. J. Pharmacol., 1985, 84, 34P) which involve the use of a protein-LTB4 conjugate produced using the procedure of Young et alia (Prostaglandins, 1983, 26(4), 605-613). The effects of a test compound on the enzyme cyclooxygenase (which is involved in the alternative metabolic pathway for arachidonic acid and gives rise to prostaglandins, thromboxanes and related metabolites) may be measured at the same time using the specific radioimmunoassay for thromboxane B2 (TxB2) described by Carey and Forder (see above). This test provides an indication of the effects of a test compound against 5-LO and also cyclooxygenase in the presence of blood cells and proteins. It permits the selectivity of the inhibitory effect on 5-LO or cyclooxygenase to be assessed.

For experiment [2], the target named is T2, 5-LO (Rattus norvegicus, UniProt P12527).
T2 construct: liberation of LTB4 induced by zymosan within an air pouch generated within the subcutaneous tissue of the back of male rats; from tissue
T2 sequence (P12527 1-673): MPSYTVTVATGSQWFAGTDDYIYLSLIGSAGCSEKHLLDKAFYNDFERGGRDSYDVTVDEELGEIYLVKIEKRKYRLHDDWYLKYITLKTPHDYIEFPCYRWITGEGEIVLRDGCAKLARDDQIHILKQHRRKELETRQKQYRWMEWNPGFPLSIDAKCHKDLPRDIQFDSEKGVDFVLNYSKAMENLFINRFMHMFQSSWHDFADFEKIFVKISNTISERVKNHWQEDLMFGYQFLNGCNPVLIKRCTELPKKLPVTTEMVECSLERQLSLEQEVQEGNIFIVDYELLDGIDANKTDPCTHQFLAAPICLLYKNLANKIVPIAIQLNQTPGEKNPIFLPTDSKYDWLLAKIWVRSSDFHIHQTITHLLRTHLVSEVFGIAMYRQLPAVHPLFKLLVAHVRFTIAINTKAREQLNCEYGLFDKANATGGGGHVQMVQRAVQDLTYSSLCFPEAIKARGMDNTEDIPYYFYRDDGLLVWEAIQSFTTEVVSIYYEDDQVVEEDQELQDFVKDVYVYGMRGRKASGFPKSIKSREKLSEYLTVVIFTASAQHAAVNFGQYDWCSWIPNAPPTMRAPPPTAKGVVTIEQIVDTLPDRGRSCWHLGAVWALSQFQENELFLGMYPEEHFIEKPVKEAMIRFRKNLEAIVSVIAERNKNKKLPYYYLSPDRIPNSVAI
The experiment is described as follows: Test c) in vivo zymosan-induced LTB4 liberation in rat air pouch. The conditions noted are these: male rats, oral. The procedure: as §1
c) An in vivo system involving measuring the effects of a test compound administered orally against the liberation of LTB4 induced by zymosan within an air pouch generated within the subcutaneous tissue of the back of male rats. The rats are anaesthetised and air pouches are formed by the injection of sterile air (20 ml). A further injection of air (10 ml) is similarly given after 3 days. At 6 days after the initial air injection the test compound is administered (usually orally as the suspension produced when a solution of the test compound in dimethylsulphoxide is added to hydroxypropylmethylcellulose), followed by the intrapouch injection of zymosan (1 ml of a 1% suspension in physiological saline). After 3 hours the rats are killed, the air pouches are lavaged with physiological saline, and the specific radioimmunoassay described above is used to assay LTB4 in the washings. This test provides an indication of inhibitory effects against 5-LO in an inflammatory milieu.

As for `COC1(c2cccc(Sc3ccc(S(=O)(=O)Nc4ccc(Cl)cn4)cc3)c2)CCOCC1` [Example 4, N-(5-chloropyrid-2-yl)-4[3-(4-methoxytetrahydropyran-4-yl)phenylthio]benzenesulphonamide], on 5-LO [1], inhibition was half-maximal at 4200 nM (IC50). In addition, on 5-LO [2], the ED50 worked out at 1.5 mg/kg.
The matching figures for `COC1(c2cccc(Sc3ccc(S(=O)(=O)Nc4nccs4)cc3)c2)CCOCC1` [Example 6, 4-[3-(4-methoxytetrahydropyran-4-yl)phenylthio]-N-(2-thiazolyl)benzenesulphonamide]: 1000 nM and 1.5 mg/kg.

The values are drawn from patent US5314891A, “Benzenesulphonamide derivatives” (Imperial Chemical Industries PLC, priority 1991, dated 1994).
